Columns and labels:
[1] = ROS-generating activity in cell-free system (H2DCFDA, HRP); type: biochemical; details: for increase of OD value vs H2DCFDA+HRP reaction: SsnB 10 μM + H2DCFDA 25 μM + HRP 5 units/ml
Method: FIG. 2D and FIG. 2E illustrate the ROS generating capacity of SsnB evaluated in a cell-free system containing H2DCFDA (25 μM), horseradish peroxidase (HRP, 5 units/ml), SsnB (10 μM) and glutathione (GSH, 0.25 or 2.5 μM) alone or in various combinations. Optical density (O.D.) at 540 nm were taken at different time points and plotted.
In a reaction system, after the removal of acetate group by cellular esterases and oxidation by reactive oxygen species, the non-fluorescent carboxy-H2DCFDA dye is oxidized to fluorescent molecule carboxy-DCF. To measure the ROS-generating activity of SsnB, the oxidation of carboxy-H2DCFDA dye was monitored in a cell-free system containing carboxy-H2DCFDA dye, horseradish peroxidase (HRP) and SsnB at 540 nm. HRP was used to supply esterase since without esterase carboxy-H2DCFDA is not sensitive to oxidant. […] After addition of HRP (5 units/ml) in the reaction mixture containing SsnB (10 μM)+H2DCFDA dye (25 μM), the OD value increased by 2% in the first 240 sec and further increased by 8% after 15 min compared to H2DCFDA+HRP reaction, indicating the increased oxidation of H2DCFDA to the fluorescent compound.

p53 in SH-SY5Y cells = test: p53 expression by Western blotting; type: cell-based, human; details: SsnB 10 μM
Method: After treatment with SsnB, cells were collected, washed with 1×PBS, and lysed with 1× cell lysis buffer (Cell Signaling Technology, Danvers, Mass.) containing phenylmethylsulfonyl fluoride (PMSF) and protease inhibitors (aprotinin and leupeptin) for 30 min on ice, and centrifuged at 12000×rpm for 10 min at 4° C. Supernatant (total cell protein) was collected and stored at −80° C. Protein concentration was determined by bicinchoninic acid method using BCA protein assay kit (Pierce/ThermoScientific, Waltham, Mass.). Equal amount of proteins were diluted with 5× Laemmli samples loading buffer and boiled for five minutes. The proteins were subjected to sodium dodecyl sulfate (SDS)-polyacrylamide gel electrophoresis and analyzed by Western blots. Briefly, after electrophoresis, proteins were transferred on polyvinylidene difluoride (PVDF) membrane at 100 volt for 3 h in cold room. […] Signals were detected by chemiluminiscence detection kit (Pierce/Thermo Fisher Scientific, Rockford, Ill.). […]
At cellular level, mitochondria- or receptor (Fas/FasL)-mediated pathways activate caspase signaling cascade which in turn induces DNA damage and initiates programmed cell death (apoptosis). […] The number of cleaved caspase-3 positive cells were quantitated by ImageJ programme and plotted. […]

[2] = tested on: SK-N-BE(2) and SH-SY5Y cells; test: Two layer soft agarose colony formation assay; type: cell-based, human; details: SsnB 10 μM, 45 days
Method: A two layer soft agarose assay system was used in these studies. Approximately 1×10^4 cells were suspended in 0.35% agarose in DMEM with 10% FBS, and were gently laid on the bottom agarose layer containing 0.8% agarose with DMEM+10% FBS in 35 mm^2 cell culture dishes. Once solidified, the dishes were incubated at 37° C. in a humidified chamber with 5% CO2. Next day, 500 μl of complete cell culture medium with respective concentrations of SsnB was added, and cells were allowed to grow for 45 days in an incubator chamber. Fresh medium with respective concentrations of SsnB was added to the dishes in every 5 days. Cells treated with equal volume of DMSO were used as control. At the end of experiments, cells were stained with 0.1% crystal violet and cell colonies (more than 15 cells per colony) were counted under the light microscope.
The anti-proliferative activity of SsnB to affects the tumor progression property of neuroblastoma cells was tested by performing two layer agarose gel colony formation assays. Agarose gel colony formation assay is an anchorage-independent in vitro cell transformation assay, and mimics the process of in vivo carcinogenesis. Neuroblastoma cells (N-myc amplified cell, SK-N-BE(2), and N-myc nonamplified cell, SH-SY5Y) were grown in agarose in presence or absence of SsnB (1 μM and 10 μM) and after 45 days the number of colonies was counted.

## O=c1occ2c3c(ccc(O)c13)Oc1ccc(O)cc1-2 [SsnB, 8,5′-dihydroxy-4-phenyl-5,2′-oxidoisocoumarin]
[1]; after 15 min
  increase of OD value vs H2DCFDA+HRP reaction: 8%
[1]; first 240 sec
  increase of OD value vs H2DCFDA+HRP reaction: 2%
[1]; SsnB 10 μM + H2DCFDA 25 μM, without HRP
  optical density at 540 nm: remained constant
p53 in SH-SY5Y cells
  p53 expression vs DMSO: Increased expression of p53
[2]; vs control and SsnB 1 μM
  size of colonies: significantly smaller
[2]; p<0.05 vs control
  colony formation capability (number of colonies): significantly inhibited the colony formation capability

From patent US9446019B2, “Sparstolonin B based pharmaceutical agent for neuroblastoma treatment” (University of South Carolina, priority 2013, dated 2016)
